In ChEMBL document CHEMBL3132797, “Synthesis and biological evaluation of substituted N-alkylphenyl-3,5-dinitrobenzamide analogs as anti-TB agents” (Medchemcomm, 2014):
≈ marks a conversion by molar mass, not a printed value.

Assays:
Type in all cases: functional
[1] = tested on: Mycobacterium tuberculosis; assay: Antimycobacterial activity against rifampicin-resistant Mycobacterium tuberculosis clinical isolates by broth dilution method
[2] = tested on: Mycobacterium tuberculosis; assay: Antimycobacterial activity against multidrug-resistant Mycobacterium tuberculosis clinical isolates by broth dilution method
[3] = tested on: Mycobacterium tuberculosis; assay: Antimycobacterial activity against isoniazid-resistant Mycobacterium tuberculosis clinical isolates by broth dilution method

Cc1ccc(C(C)NC(=O)c2cc([N+](=O)[O-])c(C)c([N+](=O)[O-])c2)cc1 (racemic)
MIC [1]: < 0.17 µM

CO[C@H]1/C=C/O[C@@]2(C)Oc3c(C)c(O)c4c(O)c(c(/C=N/N5CCN(C)CC5)c(O)c4c3C2=O)NC(=O)/C(C)=C\C=C\[C@H](C)[C@H](O)[C@@H](C)[C@@H](O)[C@@H](C)[C@H](OC(C)=O)[C@@H]1C [RIFAMPIN]
MIC [2]: 64 µM (≈ 52.7 µg/mL)
MIC [1]: 256 µM (≈ 211 µg/mL)

CC(C)c1ccc(NC(=O)c2cc([N+](=O)[O-])cc([N+](=O)[O-])c2)cc1
MIC [1]: 48.6 µM (≈ 16 µg/mL)

C[C@@H](NC(=O)c1cc([N+](=O)[O-])cc([N+](=O)[O-])c1)c1ccccc1
MIC [2]: 12.7 µM (≈ 4 µg/mL)
MIC [1]: < 0.047 µM
MIC [3]: 0.79 µM (≈ 0.249 µg/mL)

O=C(Nc1ccc(F)cc1)c1cc([N+](=O)[O-])cc([N+](=O)[O-])c1
MIC [1]: 13 µM (≈ 3.98 µg/mL)

O=C(NC1CCCC1)c1cc([N+](=O)[O-])cc([N+](=O)[O-])c1
MIC [1]: 0.9 µM (≈ 0.251 µg/mL)

NNC(=O)c1ccncc1 [ISONIAZID]
MIC [2]: 16 µM (≈ 2.19 µg/mL)
MIC [3]: 64 µM (≈ 8.78 µg/mL)

Cc1c([N+](=O)[O-])cc(C(=O)N[C@@H](C)c2ccc(F)cc2)cc1[N+](=O)[O-]
MIC [2]: 0.72 µM (≈ 0.25 µg/mL)
MIC [1]: < 0.04 µM
MIC [3]: 0.72 µM (≈ 0.25 µg/mL)

Cc1c([N+](=O)[O-])cc(C(=O)NCc2ccccc2)cc1[N+](=O)[O-]
MIC [1]: 3.17 µM (≈ 0.999 µg/mL)

Cc1ccc([C@@H](C)NC(=O)c2cc([N+](=O)[O-])c(C)c([N+](=O)[O-])c2)cc1
MIC [2]: 0.35 µM (≈ 0.12 µg/mL)
MIC [1]: < 0.04 µM
MIC [3]: 0.35 µM (≈ 0.12 µg/mL)

Cc1ccc([C@@H](C)NC(=O)c2cc([N+](=O)[O-])cc([N+](=O)[O-])c2)cc1
MIC [2]: 12.2 µM (≈ 4 µg/mL)
MIC [1]: < 0.05 µM
MIC [3]: < 0.05 µM

Cc1c([N+](=O)[O-])cc(C(=O)N[C@H](C)c2ccc(F)cc2)cc1[N+](=O)[O-]
MIC [2]: 5.76 µM (≈ 2 µg/mL)
MIC [1]: 11.5 µM (≈ 4 µg/mL)
MIC [3]: 11.5 µM (≈ 4 µg/mL)

N#Cc1ccccc1NC(=O)c1cc([N+](=O)[O-])cc([N+](=O)[O-])c1
MIC [1]: 3.2 µM (≈ 0.999 µg/mL)

COc1ccc(CCNC(=O)c2cc([N+](=O)[O-])cc([N+](=O)[O-])c2)cc1
MIC [1]: < 0.17 µM

O=C(Nc1cc(Cl)cc(Cl)c1)c1cc([N+](=O)[O-])cc([N+](=O)[O-])c1
MIC [1]: 45.1 µM (≈ 16.1 µg/mL)

CCCCC(CC)CNC(=O)c1cc([N+](=O)[O-])cc([N+](=O)[O-])c1 (stereo not drawn)
MIC [1]: < 0.19 µM

CC[C@@H](CO)NCCN[C@@H](CC)CO [ETHAMBUTOL]
MIC [2]: 16 µM (≈ 3.27 µg/mL)

O=C(Nc1ccccc1F)c1cc([N+](=O)[O-])cc([N+](=O)[O-])c1
MIC [1]: 13 µM (≈ 3.98 µg/mL)

O=C(NCCc1ccccc1)c1cc([N+](=O)[O-])cc([N+](=O)[O-])c1
MIC [2]: > 12.7 µM
MIC [1]: < 0.19 µM
MIC [3]: 0.795 µM (≈ 0.251 µg/mL)
